Tests used:
[1] = 101 kPa, Liquid; for viscosity: Capillary tube (Ostwald / Ubbelohde) method; for mass density: Pycnometric method
[2] = xn = mol fraction of the nth substance listed; settings: 101 kPa, Liquid; for viscosity: Capillary tube (Ostwald / Ubbelohde) method; for mass density: Pycnometric method

COCC(C)O (stereo unspecified) [1-methoxy-2-propanol]
[1]
Settings | mass density [kg/m3] | viscosity [mPa·s]
298.15 K | 915.9 | 1.707
308.15 K | 907.1 | 1.306
318.15 K | 896.9 | 1.069

COCC(C)O (stereo unspecified) [1-methoxy-2-propanol] + C=C(C)C(=O)O
[2], x1 = 1
Settings | mass density [kg/m3] | viscosity [mPa·s]
298.15 K | 915.9 | 1.707
308.15 K | 907.1 | 1.306
318.15 K | 896.9 | 1.069

COCC(C)O (stereo unspecified) [1-methoxy-2-propanol] + C=C(C)C(=O)OCCO
[2], x1 = 1
Settings | mass density [kg/m3] | viscosity [mPa·s]
298.15 K | 915.9 | 1.707
308.15 K | 907.1 | 1.306
318.15 K | 896.9 | 1.069

COCC(C)O (stereo unspecified) [1-methoxy-2-propanol] + C=C(C)C(=O)OCc1ccccc1
[2], x1 = 1
Settings | mass density [kg/m3] | viscosity [mPa·s]
298.15 K | 915.9 | 1.707
308.15 K | 907.1 | 1.306
318.15 K | 896.9 | 1.069

C=C(C)C(=O)OCCO [2-hydroxyethyl 2-methyl-2-propenoate]
[1]
Settings | mass density [kg/m3] | viscosity [mPa·s]
298.15 K | 1067.1 | 5.784
308.15 K | 1057.7 | 4.194
318.15 K | 1048.6 | 3.181

C=C(C)C(=O)OCCO [2-hydroxyethyl 2-methyl-2-propenoate] + COCC(C)O
[2]
Settings | mass density, 298.15 K [kg/m3] | mass density, 308.15 K [kg/m3] | mass density, 318.15 K [kg/m3] | viscosity, 298.15 K [mPa·s] | viscosity, 308.15 K [mPa·s] | viscosity, 318.15 K [mPa·s]
x2 = 0 | 1067.1 | 1057.7 | 1048.6 | 5.784 | 4.194 | 3.181
x2 = 0.1 | 1055.2 | 1046.2 | 1037.8 | 5.12 | 3.747 | 2.869
x2 = 0.2 | 1042.8 | 1034.1 | 1025.5 | 4.607 | 3.408 | 2.623
x2 = 0.3 | 1029.9 | 1021.2 | 1012.6 | 4.13 | 3.065 | 2.373
x2 = 0.4 | 1016.3 | 1007.5 | 998.9 | 3.656 | 2.757 | 2.148
x2 = 0.5 | 1001.7 | 993 | 984.4 | 3.256 | 2.477 | 1.947
x2 = 0.6 | 986.2 | 977.6 | 969 | 2.869 | 2.208 | 1.753
x2 = 0.7 | 969.8 | 961.5 | 952.8 | 2.496 | 1.944 | 1.559
x2 = 0.8 | 952.7 | 944.5 | 935.5 | 2.208 | 1.73 | 1.395
x2 = 0.9 | 934.8 | 926.6 | 917.3 | 1.933 | 1.528 | 1.237

C=C(C)C(=O)O [2-methyl-2-propenoic acid]
[1]
Settings | mass density [kg/m3] | viscosity [mPa·s]
298.15 K | 1009.5 | 1.267
308.15 K | 999.4 | 1.078
318.15 K | 989.2 | 0.945

From the NIST ThermoML archive (doi:10.1021/je060288t)
